From the PolyMetriX glass transition set come the findings set out here.

`*C(=O)c1ccc2c(c1)C(=O)N(c1cccc(C(=O)c3ccccc3N3C(=O)c4ccc(*)cc4C3=O)c1)C2=O` (repeat unit): the glass transition temperature was 259.00 °C.

Take `*C(=O)c1ccc2c(c1)C(=O)N(c1cccc(Cc3ccccc3N3C(=O)c4ccc(*)cc4C3=O)c1)C2=O` (repeat unit): the glass transition temperature is 258.00 °C.

`*C(=O)c1ccc2c(c1)C(=O)N(c1cccc(P(=O)(c3ccc(C(F)(F)F)cc3)c3cccc(N4C(=O)c5ccc(*)cc5C4=O)c3)c1)C2=O` (repeat unit): the glass transition temperature turned out to be 264.00 °C. Take `*C(=O)c1ccc2c(c1)C(=O)N(c1cccc(P(=O)(c3ccc(Oc4ccc(C56CC7CC(CC(C7)C5)C6)cc4)cc3)c3cccc(N4C(=O)c5ccc(*)cc5C4=O)c3)c1)C2=O` (repeat unit): the glass transition temperature worked out at 305.00 °C. `*CC(COc1ccc(C(C)(C)c2ccc(O*)cc2)cc1)OC(=O)/C=C/c1ccccc1` (repeat unit) returned a glass transition temperature of 100.60 °C. Next, `*CC(COc1ccc(C(C)(C)c2ccc(O*)cc2)cc1)OC(=O)CCl` (repeat unit): 65.00 °C; `*CC(COc1ccc(C2CCCC(CC)(c3ccc(O*)cc3)C2)cc1)OC(C)=O` (repeat unit): 107.00 °C; `*CC(O)CN(CC(O)COc1ccc(C(C)(C)c2ccc(O*)cc2)cc1)c1ccc(/C=C/c2ccc([N+](=O)[O-])cc2)cc1` (repeat unit): 320.00 °C. On to `*CC(O)CN(CC(O)COc1ccc(C(C)(C)c2ccc(O*)cc2)cc1)c1ccc(/N=N/c2ccc([N+](=O)[O-])cc2)cc1` (repeat unit), for which the glass transition temperature came out at 59.00 °C. Molecule `*CC(O)CN(CCO)S(=O)(=O)c1ccc(-c2ccc(S(=O)(=O)N(CCO)CC(O)COc3ccc(C(C)(C)c4ccc(O*)cc4)cc3)cc2)cc1` (repeat unit) had a glass transition temperature of 76.00 °C. With `*CC(O)COC(=O)/C=C/C(=O)Oc1ccc(C(C)(C)c2ccc(O*)cc2)cc1` (repeat unit), the glass transition temperature worked out at 32.00 °C. With `*CC(O)COC(=O)CCCCCCC(=O)OCC(O)COc1ccc(C(C)(C)c2ccc(O*)cc2)cc1` (repeat unit), the glass transition temperature was determined as 35.00 °C. To `*CC(O)COC(=O)CCCCCCCCCCC(=O)OCC(O)COc1ccc(C(C)(C)c2ccc(O*)cc2)cc1` (repeat unit) belongs 25.00 °C. `*CC(O)COC(=O)c1cccc(C(=O)OCC(O)COc2ccc(C(C)(C)c3ccc(O*)cc3)cc2)c1` (repeat unit) yielded a glass transition temperature of 97.00 °C. `*CC(O)COc1ccc(C(=O)c2ccc(OCC(O)COc3ccc(C(C)(C)c4ccc(O*)cc4)cc3)cc2)cc1` (repeat unit) had a glass transition temperature of 120.00 °C. `*CC(O)COc1ccc(C(C)(C)C2CCC(C)(c3ccc(O*)cc3)CC2)cc1` (repeat unit) yielded a glass transition temperature of 135.00 °C. Next, `*CC(O)COc1ccc(C(C)(C)c2ccc(O*)c(Cl)c2)cc1Cl` (repeat unit): 85.00 °C. For `*CC(O)COc1ccc(C(C)(C)c2ccc(OCC(O)COc3ccc(C(=O)Nc4ccc(O*)cc4)cc3)cc2)cc1` (repeat unit), the glass transition temperature came out at 127.00 °C. In turn, `*CC(O)COc1ccc(C(C)(C)c2ccc(OCC(O)COc3cccc(NC(=O)CCCC(=O)Nc4cccc(O*)c4)c3)cc2)cc1` (repeat unit) registered a glass transition temperature of 111.00 °C.

Regarding `*CC(O)COc1ccc(C(C)(C)c2ccc(OCC(O)COc3cccc(NC(=O)CCCCCCC(=O)Nc4cccc(O*)c4)c3)cc2)cc1` (repeat unit), the glass transition temperature is 92.00 °C. Next, `*CC(O)COc1ccc(C(C)(C)c2ccc(OCC(O)COc3cccc(NC(=O)CCCCCCCCCCC(=O)Nc4cccc(O*)c4)c3)cc2)cc1` (repeat unit): 90.00 °C; `*CC(O)COc1ccc(C(C)(C)c2ccc(OCC(O)COc3ccccc3C(=O)Nc3ccc(O*)cc3)cc2)cc1` (repeat unit): 121.00 °C; `*CC(O)COc1ccc(C(C)(c2ccccc2)c2ccc(O*)cc2)cc1` (repeat unit): 115.00 °C. Consider `*CC(O)COc1ccc(C2(C)CC(C)(C)c3cc(O*)ccc32)cc1` (repeat unit), for which the glass transition temperature was found to be 120.00 °C. In turn, `*CC(O)COc1ccc(C2CC(C(C)C)CCC2(C)c2ccc(O*)cc2)cc1` (repeat unit) had a glass transition temperature of 175.00 °C. To `*CC(O)COc1ccc(C2CCCC(CC)(c3ccc(O*)cc3)C2)cc1` (repeat unit) belongs 140.00 °C; to `*CC(O)COc1ccc(S(=O)(=O)c2ccc(O*)cc2)cc1` (repeat unit), 167.50 °C; to `*CCCCCCCCCCCCOc1ccc(N(c2ccccc2)c2ccc(-c3ccc(N(c4ccccc4)c4ccc(O*)cc4)cc3)cc2)cc1` (repeat unit), 42.50 °C. `*CCOC(=O)Nc1ccc(Cc2ccc(NC(=O)OCCOc3ccc(C(C)(C)c4ccc(O*)cc4)cc3)cc2)cc1` (repeat unit) registered a glass transition temperature of 127.00 °C. `*CCOCCOCCN1C(=O)c2ccc(C(=O)Oc3ccc(C(C)(C)c4ccc(OC(=O)c5ccc6c(c5)C(=O)N(*)C6=O)cc4)cc3)cc2C1=O` (repeat unit) had a glass transition temperature of 118.00 °C.

Take `*COc1ccc(C(C)(C)c2ccc(Oc3ccc(*)n3-c3ccc([N+](=O)[O-])cc3)cc2)cc1` (repeat unit): the glass transition temperature was 76.8 °C.

`*COc1ccc(C(c2ccc(O*)cc2)(C(F)(F)F)C(F)(F)F)cc1` (repeat unit) came in with a glass transition temperature of 123.00 °C.

Take `*COc1ccc(C(c2ccc(OCC3(*)COC3)cc2)(C(F)(F)F)C(F)(F)F)cc1` (repeat unit): the glass transition temperature amounted to 134.00 °C.

In turn, `*OP(=O)(Oc1ccc(C(C)(C)c2ccc(*)cc2)cc1)OC1CCCCC1` (repeat unit) registered a glass transition temperature of 86.00 °C.

Regarding `*Oc1ccc(C(C)(C)c2ccc(OC(*)(Oc3ccccc3)Oc3ccccc3)cc2)cc1` (repeat unit), the glass transition temperature is 92.00 °C. For the molecule `*Oc1ccc(C(C)(C)c2ccc(OC(*)=S)cc2)cc1` (repeat unit), the glass transition temperature was 140.50 °C. `*Oc1ccc(C(C)(C)c2ccc(OC(=O)c3cccc(C(F)(F)C(F)(F)C(F)(F)c4cccc(C(*)=O)c4)c3)cc2)cc1` (repeat unit): the glass transition temperature was determined as 122.00 °C. To `*Oc1ccc(C(C)(C)c2ccc(OC(=O)c3cccc(Oc4cccc(C(*)=O)c4)c3)cc2)cc1` (repeat unit) belongs 85.00 °C; to `*Oc1ccc(C(C)(C)c2ccc(OC(=O)c3ccccc3-c3ccccc3C(*)=O)cc2)cc1` (repeat unit), 161.00 °C; to `*Oc1ccc(C(C)(C)c2ccc(OC3(F)C(*)(F)C(F)(F)C3(F)F)cc2)cc1` (repeat unit), 98.00 °C. Molecule `*Oc1ccc(C(CC)(CC)c2ccc(OC(*)=S)cc2)cc1` (repeat unit) gave a glass transition temperature of 121.00 °C. With `*Oc1ccc(C(CC)c2ccc(OC(*)=S)cc2)cc1` (repeat unit), the glass transition temperature is 104.00 °C. `*Oc1ccc(C(c2ccc(OC(*)=S)cc2)C(C)C)cc1` (repeat unit) yielded a glass transition temperature of 135.00 °C. Molecule `*Oc1ccc(C(c2ccc(OC(*)=S)cc2)C(CC)CC)cc1` (repeat unit) came in with a glass transition temperature of 148.00 °C. Next, `*Oc1ccc(C2(c3ccc(OC(*)=S)cc3)CCC(C)CC2)cc1` (repeat unit): 168.00 °C; `*c1cc(C(c2ccc(OCCN(C)c3ccc(/C=C/C4=CC(=C(/C#N)C(=O)OC)/CC(C)(C)C4)cc3)c(N3C(=O)c4ccc(Oc5ccc6c(c5)C(=O)N(*)C6=O)cc4C3=O)c2)(C(F)(F)F)C(F)(F)F)ccc1OCCN(c1ccccc1)c1ccc(/C=C/C2=CC(=C(/C#N)C(=O)OC)/CC(C)(C)C2)cc1` (repeat unit): 207.00 °C. `*c1cc(C(c2ccc(OCCN(C)c3ccc(/C=C/C4=CC(=C(/C#N)C(=O)OCc5ccc(Oc6c(F)c(F)c(F)c(F)c6F)cc5)/CC(C)(C)C4)cc3)c(N3C(=O)c4ccc(Oc5ccc6c(c5)C(=O)N(*)C6=O)cc4C3=O)c2)(C(F)(F)F)C(F)(F)F)ccc1OCCN(c1ccccc1)c1ccc(/C=C/C2=CC(=C(/C#N)C(=O)OCc3ccc(Oc4c(F)c(F)c(F)c(F)c4F)cc3)/CC(C)(C)C2)cc1` (repeat unit): the glass transition temperature amounted to 162.00 °C. Next, `*c1cc(C(c2ccc(OCCN(C)c3ccc(/C=C/C4=CC(=C(C#N)C#N)CC(C)(C)C4)cc3)c(N3C(=O)c4ccc(Oc5ccc6c(c5)C(=O)N(*)C6=O)cc4C3=O)c2)(C(F)(F)F)C(F)(F)F)ccc1OCCN(C)c1ccc(/C=C/C2=CC(=C(C#N)C#N)CC(C)(C)C2)cc1` (repeat unit): 215.00 °C; `*c1cc(C(c2ccc(OCCN(c3ccccc3)c3ccc(/C=C/C4=CC(=C(C#N)C#N)CC(C)(C)C4)cc3)c(N3C(=O)c4ccc(Oc5ccc6c(c5)C(=O)N(*)C6=O)cc4C3=O)c2)(C(F)(F)F)C(F)(F)F)ccc1OCCN(c1ccccc1)c1ccc(/C=C/C2=CC(=C(C#N)C#N)CC(C)(C)C2)cc1` (repeat unit): 220.00 °C; `*c1ccc(OC(=O)c2cccc(C(=O)Oc3ccc(C4(*)OC(=O)c5ccccc54)cc3C)c2)c(C)c1` (repeat unit): 273.00 °C.

In the case of `*c1ccc(OCCCCCCCCCCCCCCCC)c(N2C(=O)CC(C3C=C(C)C4C(=O)N(*)C(=O)C4C3)C2=O)c1` (repeat unit), the glass transition temperature was determined as 186.00 °C. `*c1ccc(OCCN(CC)c2ccc(-c3ccc(C(=C(C#N)C#N)c4ccc(-c5ccc(N(CC)CC)cc5)s4)s3)cc2)c(-c2cc(-c3ccccc3)c3cc(Oc4ccc5nc(*)cc(-c6ccccc6)c5c4)ccc3n2)c1` (repeat unit) showed a glass transition temperature of 205.00 °C. The molecule `*c1ccc(OCCN(CC)c2ccc(C(C#N)=C(C#N)C#N)cc2)c(-c2cc(-c3ccccc3)c3cc(Oc4ccc5nc(*)cc(-c6ccccc6)c5c4)ccc3n2)c1` (repeat unit) displayed a glass transition temperature of 200.00 °C. Consider `*c1ccc2c(c1)C(=O)N(c1cc(C(c3ccc(OC(C)=O)c(N4C(=O)c5ccc(C(*)(C(F)(F)F)C(F)(F)F)cc5C4=O)c3)(C(F)(F)F)C(F)(F)F)ccc1OC(C)=O)C2=O` (repeat unit), for which the glass transition temperature was 266.50 °C.
